This note sets out measurements from patent US20110224276A1, “OPTICAL ISOMER OF PHENYLPROPIONIC ACID AND ITS MEDICINAL USE” (priority 2008, published 2011).

pIC50: −log10 of the molar value. “And” between values parts separate entries of the source, which are not always exact repeats. Equal entries are not always repeated.

Data set [1] deals with SD rats. The data set is described as follows: long-term toxicity test in SD rats, thirteen-week consecutive intragastric administration and four-week convalescence. The settings on record: rats. As to the method: 2. […] The tested samples are formulated into suspensions by milling with 0.5% CMC—Na; intragastric administration (10 ml/kg) every day for consecutive 13 weeks; on each day, after administration, the general conditions of the animals are observed, and weight and amount of ingestion are determined once every week. In 24 hours after the last administration, half of rats in each tested group are fasted overnight, blood samples are withdrawn via femoral arteries, and the rats are dissected, and the indexes of blood cytology and biochemics, gloss anatomy and histopathological examination are preformed. The administration to remaining half rats is stopped, and the convalescence is observed; general conditions are observed and weight and amount of ingestion are determined once every week. After 4 weeks, the observation is complete, and the half of rats in each tested group are fasted overnight, blood samples are withdrawn via femoral arteries, and the rats are dissected, and the indexes of blood cytology and biochemics, gloss anatomy and histopathological examination are preformed.

For data set [2], the target named is T1, 5-Lox (human recombinant) (Homo sapiens, UniProt P09917).
T1 construct: purchased Cayman, USA
T1 sequence (P09917 1-674): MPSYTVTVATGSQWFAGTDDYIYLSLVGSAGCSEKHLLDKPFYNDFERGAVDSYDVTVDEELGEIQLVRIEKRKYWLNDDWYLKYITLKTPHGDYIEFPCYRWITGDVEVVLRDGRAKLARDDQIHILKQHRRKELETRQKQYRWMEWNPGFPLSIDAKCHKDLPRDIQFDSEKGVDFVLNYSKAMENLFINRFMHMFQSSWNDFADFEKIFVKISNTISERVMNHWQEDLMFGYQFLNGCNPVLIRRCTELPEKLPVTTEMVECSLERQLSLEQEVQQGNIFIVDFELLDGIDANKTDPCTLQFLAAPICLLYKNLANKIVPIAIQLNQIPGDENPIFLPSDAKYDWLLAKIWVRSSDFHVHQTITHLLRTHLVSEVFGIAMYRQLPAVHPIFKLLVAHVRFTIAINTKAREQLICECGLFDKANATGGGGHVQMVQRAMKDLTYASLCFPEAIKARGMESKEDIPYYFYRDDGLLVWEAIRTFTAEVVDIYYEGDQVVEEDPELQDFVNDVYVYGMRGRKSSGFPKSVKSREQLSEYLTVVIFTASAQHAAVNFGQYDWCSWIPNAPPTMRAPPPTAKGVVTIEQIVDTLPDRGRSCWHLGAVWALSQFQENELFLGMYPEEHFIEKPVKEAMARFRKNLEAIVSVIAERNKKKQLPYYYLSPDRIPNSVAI
The data set is described as follows: inhibiting activity to 5-lipoxygenase (500 nm). The settings on record: tested at 300, 100, 30, 10 μmol/L (positive control 100, 30, 10, 3). It counts as biochemical. The source says:
(§1) Fitting data of concentration (μmol/L) and corresponding inhibition rate (%) via Microsoft EXCEL software to get a trendline, so as to obtain the half-effective inhibiting concentration (IC50) of each tested enzyme.

Data set [3] relates to ICR mice. Nature of the data set: in vivo. The source says:
(§2) Each tested group includes 5 dose-groups during the tests as follows:
Intragastric administration (ig)
(3) Observed periods: 14 days

In a further data set the target is T2, Cox-1 (Ovis aries, UniProt P05979).
T2 construct: purchased Cayman, USA
T2 sequence (P05979 25-600): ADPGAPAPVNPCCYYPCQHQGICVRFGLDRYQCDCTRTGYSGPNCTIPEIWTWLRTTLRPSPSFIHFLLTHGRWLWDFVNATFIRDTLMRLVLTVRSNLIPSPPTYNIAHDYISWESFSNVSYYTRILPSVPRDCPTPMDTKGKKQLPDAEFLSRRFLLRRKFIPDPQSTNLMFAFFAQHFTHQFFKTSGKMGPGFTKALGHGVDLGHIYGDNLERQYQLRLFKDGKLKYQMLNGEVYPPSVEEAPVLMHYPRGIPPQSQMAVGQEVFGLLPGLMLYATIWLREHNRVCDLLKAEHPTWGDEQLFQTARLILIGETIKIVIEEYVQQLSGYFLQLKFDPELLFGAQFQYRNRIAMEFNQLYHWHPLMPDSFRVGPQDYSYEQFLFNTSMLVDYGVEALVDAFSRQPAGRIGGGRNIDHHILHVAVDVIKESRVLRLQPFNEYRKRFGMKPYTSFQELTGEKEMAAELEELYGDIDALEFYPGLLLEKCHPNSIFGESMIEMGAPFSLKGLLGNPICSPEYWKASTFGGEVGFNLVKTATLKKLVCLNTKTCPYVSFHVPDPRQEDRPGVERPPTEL
Nature of the data set: inhibiting activity to COX-1 (TMPD colorimetric, 590 nm). It counts as biochemical. The settings on record: tested at 300, 100, 30, 10 μmol/L (positive control 100, 30, 10, 3). The protocol: (§3) 2.5.1 The Inhibiting Activity to COX-1/COX-2
(§4) (1) In 220 ul of reaction system, mixed buffer (1×), heme, COX-1/COX-2, and the compound to be tested, are sequentially added, and are incubated for 5 minutes at 25° C.;
(§5) (2) Adding chromogenic substrate (TMPD) and arachidonic acid;
(§6) (3) Carefully shaking the plate for several seconds, then incubating for 15 minutes at 25° C.;
(§7) (4) Detecting absorption value at 590 nm.
as §1

The test system of data set [4] is ICR mice. Nature of the data set: in vivo.
Text: as §2
Intraperitoneal injection (ip)
(3) Observed periods: 14 days.
The source holds these as a separate data set.

The test system of data set [5] is SD rats. Nature of the data set: toxicity test in SD rats, four-week consecutive intragastric administration. The settings on record: rats. The protocol: 2. […] The tested samples are formulated into suspensions by milling with 0.5% CMC—Na; intragastric administration every day (10 ml/kg) for consecutive 4 weeks; on each day, after administration, the general conditions of the animals are observed, and weight and amount of ingestion are determined once every week. In 24 hours after the last administration, the rats are fasted overnight, blood samples are withdrawn via femoral arteries, and the rats are dissected, and the indexes of blood cytology and biochemics, gloss anatomy and histopathological examination are preformed.

A further data set concerns the target T3, Cox-2 (Homo sapiens, UniProt P35354).
T3 construct: purchased Cayman, USA
T3 sequence (P35354 18-604): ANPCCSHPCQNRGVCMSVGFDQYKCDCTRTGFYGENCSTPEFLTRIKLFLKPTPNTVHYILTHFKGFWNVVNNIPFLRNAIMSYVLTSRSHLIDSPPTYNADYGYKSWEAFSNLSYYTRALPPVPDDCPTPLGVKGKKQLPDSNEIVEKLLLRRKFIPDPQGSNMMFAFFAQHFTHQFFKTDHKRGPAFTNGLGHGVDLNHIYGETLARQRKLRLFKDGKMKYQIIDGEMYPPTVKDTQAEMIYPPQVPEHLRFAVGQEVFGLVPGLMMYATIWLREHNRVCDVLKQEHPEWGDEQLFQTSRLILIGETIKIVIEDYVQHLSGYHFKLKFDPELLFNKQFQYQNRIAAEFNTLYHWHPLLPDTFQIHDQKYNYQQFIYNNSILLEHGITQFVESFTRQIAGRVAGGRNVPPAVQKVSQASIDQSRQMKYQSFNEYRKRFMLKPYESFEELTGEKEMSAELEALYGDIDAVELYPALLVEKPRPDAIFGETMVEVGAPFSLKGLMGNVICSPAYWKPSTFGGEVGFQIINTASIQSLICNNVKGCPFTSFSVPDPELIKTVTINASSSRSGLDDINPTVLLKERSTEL
The data set is described as follows: inhibiting activity to COX-2 (TMPD colorimetric, 590 nm). The class given is biochemical. The settings on record: tested at 300, 100, 30, 10 μmol/L (positive control 100, 30, 10, 3). The protocol:
as §3, §4, §5, §6, §7, §1

Consider “R-10,11-dihydro-alpha-methyl-10-oxo-dibenzo[b,f]tiazem-2-acetic acid:S-10,11-dihydro-alpha-methyl-10-oxo-dibenzo[b,f]tiazem-2-acetic acid (6:1) [S:R = 1:6]”, for which the gastrointestinal tract toxicity result with SD rats [1] (13-week ig, S 50, 25, RS 50, R 400, 200, 100, R:S=6:1 200, 100, 50 mg/kg) is given as “not produce significant gastrointestinal tract toxicity”; with SD rats [5] (four-week ig, S 80, 40, RS 80, R 480, 240, 120, R:S=6:1 320, 160, 80 mg/kg) it was “do not produce significant gastrointestinal tract toxicity”. The figures for the nontoxic dosage in the data set with SD rats [1] (13-week consecutive intragastric administration) and with SD rats [5] (four-week consecutive intragastric administration) were 100 mg/kg and 160 mg/kg, respectively. In addition, the pIC50 (as a rule, the negative decadic logarithm of the IC50, by convention in mol/L) is 4.73 in data set [2], 4.15 at Cox-1 and 5.28 on Cox-2. Also, the “Com. Vs. S (multiple)” value in the data set on ICR mice [3] (LD50 ig compared with S) came out at 4.2 multiple; in the data set with ICR mice [4] (LD50 ip compared with S), 2.5 multiple. In addition, the LD50 (in general, the dose expected to kill half of the subjects tested) in the data set on ICR mice [3] (mice, ig, single dose, 14 days observation, Bliss method) was 1138.5 ± 80.3 mg/kg and 1138.5 mg/kg; with ICR mice [4] (mice, ip, single dose, 14 days observation, Bliss method), 497.6 ± 28.6 mg/kg.
